Legend:
[1] = test system: HFD-induced obese rats; assay: High-fat diet-induced obesity rat model, i.c.v. OT infusion: body weight gain and food intake; assay type: in vivo; details: 14 days, compared with saline
Method: The beneficial metabolic effects of OT administration were assayed in the following high-fat diet-induced obesity model in rats.
Male Wistar (300-325 g) rats were purchased from Charles River (L′Arbresle, France) and housed in individual cages under conditions of controlled temperature (22° C.) and illumination (light on: 07:00-19:00 h). They were allowed free access to water and a 45% high fat diet (HFD) (metabolized energy, 4.56 kcal/g) (Ssniff® EF R/M acc. D12451 (I) mod., ssniff Spezialdiaten GmbH, Soest, Germany) for seven weeks. Body weight, food intake and water intake were recorded daily (08:30-09:30 h). All procedures were approved by the Ethic Committee of our University and were in accordance with the Swiss guidelines for animal experimentation.
To study the role of OT on metabolic homeostasis, the above male Wistar rats were rendered obese by 7 weeks of HFD 45% and were intracerebroventricularly (i.c.v.) infused with either OT (1.6 nmol/d) or saline during the last 2 weeks of the experiment.
After three weeks of HFD feeding, rats were submitted to surgical procedures. They were anesthetized with intramuscular injection of ketamine-xylasine (Ketalar®-Rompun®, Parke-Davis and Bayer, Leverkusen, Switzerland) at 40 and 9 mg/kg, respectively, and implanted with a cannula in the right lateral cerebral ventricle fixed on the skull with dental cement, as previously described (Rohner-Jeanrenaud et al., 1989, Endocrinology 124, 733-9). After one week of recovery, the drinking response to i.c.v. injection of Angiotensin II (5 ng/μl) (Novabiochem, Laüfelfingen, Switzerland) was measured to confirm the correct placement of the cannula. At the end of the fifth week of high fat diet feeding, osmotic minipumps (Alzet®, model 2001, Alza Corporation, Cupertino, Calif.) delivering oxytocin (NeoMPS®, Strasbourg, France) or its vehicle (NaCl 0.9%) were subcutaneously implanted and connected to the i.c.v. cannula via a polyethylene catheter, as previously described (Rohner-Jeanrenaud et al., 1989, above). OT was delivered at a dose of 1.6 nmol/day/rat or 16 nmol/day/rat during 14 days. A group of vehicle-infused rats was pair-fed to the amount of food consumed by OT-infused animals in order to assess the effects of OT independently from changes in food intake. The pair-feeding regimen consisted in giving one-third of the daily food amount in the morning and the remaining two-thirds just before onset of darkness. Rats were sacrificed using isoflurane anesthesia (Halocarbon Laboratories, River Edge, N.J.) and rapid decapitation between 09:00 and 13:00 h. Blood samples were collected into EDTA-coated tubes, centrifuged and plasma stored at −20° C. Tissues were rapidly removed, freeze-clamped, and stored at −80° C.

[2] = test system: enzymes involved in lipid metabolism; assay: Tissue expression of lipid metabolism enzymes (real-time RT-PCR) after i.c.v. OT infusion; assay type: in vivo, rat
Method: To delineate the mechanisms responsible for the effect on peripheral metabolism, the expression of enzymes involved in lipid metabolism was analyzed in adipose tissues (epididymal white and interscapular brown adipose tissues). Total RNAs were extracted from frozen tissue using a single-step extraction with Trizol reagent (Sigma-Aldrich, Buchs, Switzerland). RNA integrity was assessed by electrophoresis on a 1% agarose gel and concentration was determined by spectrophotometry. An amount of 2.5 μg of total RNAs was used for RT using random hexamers (Microsynth, Geneva, Switzerland), dNTPs (Promega Corporation, Madison, Wis., USA), RNasin as an RNase inhibitor (Promega Corporation) and the Moloney Murine Leukemia Virus Reverse Transcriptase (M-MLV-RT) enzyme kit (Invitrogen, Basel, Switzerland). For quantitative PCR (qPCR), amplification of genes was performed from 6.25 or 12.5 ng cDNA, using the SYBR® green PCR Master Mix (Applied Biosystems, Warrington, UK) and an ABI7500 machine (Applied Biosystems, Foster City, Calif.). All the primers were designed (FIG. 9, Table 1) with the PrimerExpress software (http://phym.unige.ch/) and used at a concentration of 200 to 300 nM for qPCR. Results were normalized to the expression levels of the housekeeping gene, ribosomal protein S29 (RPS29).

[3] = test system: epididymal white adipose tissue (eWAT); assay: eWAT endocannabinoid content after i.c.v. OT infusion; assay type: in vivo, rat
[4] = test system: HFD-induced obese rats; assay: Euglycemic-hyperinsulinemic clamps after i.c.v. OT infusion; assay type: in vivo, rat; details: 14-day i.c.v. 1.6 nmol/d
Method: Global and tissue-specific glucose utilization rates were measured by performing euglycemic-hyperinsulinemic clamps associated with the labeled 2-deoxyglucose technique as previously described (Vettor et al., 1994, Diabetologia, 37, 1202-1208). HFD-induced obese rats were overnight fasted and intraperitoneally anesthetized with Nembutal (75 mg/kg sodium pentobarbital; Abbott Laboratories, Chicago, Ill.). Total glucose utilization was measured during euglycemic-hyperinsulinemic clamps, as previously described (Vettor et al., 1994, above). At the end of the clamp, the in vivo insulin-stimulated glucose utilization index of individual tissues was determined by injecting a single bolus of labeled 2-deoxy-D-[1-3H]glucose (30 μCi; Amersham Biosciences UK, Little Chalfont, UK), as previously described (Vettor et al., 1994, above). Rats were killed by rapid decapitation, and tissues were rapidly removed, freeze-clamped, and stored at −80° C. Measurement of tissue concentration of 2-deoxy-d-[1-^3H]glucose-6-phosphate allowed calculation (Vettor et al., 1994, above) of the in vivo glucose utilization index of individual tissues and was expressed in ng/mg·min.

[5] = interscapular brown adipose tissue (BAT), i.c.v. OT

SMILES: CC[C@H](C)[C@@H]1NC(=O)[C@H](Cc2ccc(O)cc2)NC(=O)[C@@H](N)CSSC[C@@H](C(=O)N2CCC[C@H]2C(=O)N[C@@H](CC(C)C)C(=O)NCC(N)=O)NC(=O)[C@H](CC(N)=O)NC(=O)[C@H](CCC(N)=O)NC1=O [OT, Cys-Tyr-Ile-Gln-Asn-Cys-Pro-Leu-Gly (SEQ ID NO: 1)]
- cumulative body weight gain ([1]; i.c.v. 1.6 nmol/d): more than fifty percent decrease
- cumulative food intake ([1]; i.c.v. 1.6 nmol/d): without any effect
- food efficiency (ratio of body weight gain to cumulative food intake) ([1]; i.c.v. 1.6 nmol/d): marked decrease
- cumulative food intake ([1]; i.c.v. 16 nmol/d): decreased
- body weight gain ([1]; i.c.v. 16 nmol/d, not observed in pair-fed group): significantly lower
- mRNA expression of PPAR-alpha and its target genes ([2]; BAT, OT infusion (16 nmol/d experiment)): significantly increased
- Acaca mRNA expression ([2]; eWAT, i.c.v. 1.6 nmol/d): did not modify
- Acadm mRNA expression ([2]; eWAT, i.c.v. 1.6 nmol/d): increased
- Acox1 mRNA expression ([2]; eWAT, i.c.v. 1.6 nmol/d): increased
- Dgat1 mRNA expression ([2]; eWAT, i.c.v. 1.6 nmol/d): did not modify
- Ehhadh mRNA expression ([2]; eWAT, i.c.v. 1.6 nmol/d): increased
- Fasn mRNA expression ([2]; eWAT, i.c.v. 1.6 nmol/d): did not modify
- HSL mRNA expression ([2]; eWAT, i.c.v. 1.6 nmol/d): increased
- Lpl mRNA expression ([2]; eWAT, i.c.v. 1.6 nmol/d): increase
- Pnpla2 mRNA expression ([2]; eWAT, i.c.v. 1.6 nmol/d): increased
- Scd1 mRNA expression ([2]; eWAT, i.c.v. 1.6 nmol/d): marked increase
- Ucp3 mRNA expression ([2]; eWAT, i.c.v. 1.6 nmol/d): enhanced
- PPAR-alpha mRNA ([2]; eWAT, i.c.v. 16 nmol/d): did not modify
- expression of PPAR-alpha target genes (Acadm, Acox1, Ehhadh, Ucp3) ([2]; eWAT, i.c.v. 16 nmol/d, food intake-independent): increases
- stimulatory effect on Scd1 mRNA expression ([2]; i.c.v. 1.6 nmol/d (lower dose)): 4.2 folds
- stimulatory effect on Scd1 mRNA expression ([2]; i.c.v. 16 nmol/d): 5.6 folds
- PPAR-alpha expression [2, 5]: significantly increased
- expression of the main enzymes involved in fatty acid β-oxidation [2, 5]: significantly increased
- expression of genes involved in fatty acid β-oxidation ([2]; skeletal muscle, central OT infusion): did not modify
- eWAT OEA content ([3]; chronic i.c.v. OT 1.6 nmol/d, compared with saline): increased
- eWAT content of other endocannabinoids (PEA, AEA, 2-AG) ([3]; chronic i.c.v. OT infusion): not modifying
- stimulatory effect on OEA content ([3]; i.c.v. 1.6 nmol/d (lower dose)): 1.3 folds
- stimulatory effect on OEA content ([3]; i.c.v. 16 nmol/d): 2 folds
- glucose uptake in epididymal WAT [4]: significant increase
- glucose uptake in inguinal WAT [4]: significant increase
- glucose infusion rate (GIR) ([4]; compared to saline): significant increases
- glucose utilization index, red gastrocnemius ([4]; compared to saline): significant increases
- glucose utilization index, red quadriceps ([4]; compared to saline): significant increases
- glucose utilization index, soleus ([4]; compared to saline): significant increases

— patent US9101569B2, “Methods for the treatment of insulin resistance” (UNIVERSITE DE GENEVE, priority 2010, dated 2015)
